Results published in the supplement of paper PMC13380429.
± gives the standard deviation of the averaged measurements.

Key:
Conditions in all cases: 72 h
U2OS [1] = assay: relative viability EC50 (midpoint between 100% and the lowest measured viability); higher = less toxic
Vero E6 [2] = assay: as above
Caco-2 [3] = assay: as above
HepG2 [4] = assay: as above
Calu-3 [5] = assay: as above
U2OS [6] = assay: cell viability relative to DMSO; higher = less toxic
Vero E6 [7] = assay: as above
Caco-2 [8] = assay: as above
HepG2 [9] = assay: as above
Calu-3 [10] = assay: as above
U2OS [11] = assay: drug sensitivity score (DSS) for viability; higher = more toxic; extreme values may be limits of the assay
Vero E6 [12] = assay: as above
Caco-2 [13] = assay: as above
HepG2 [14] = assay: as above
Calu-3 [15] = assay: as above

SMILES	relative viability EC50 (U2OS [1]) [µM]	relative viability EC50 (Vero E6 [2]) [µM]	relative viability EC50 (Caco-2 [3]) [µM]	relative viability EC50 (HepG2 [4]) [µM]	relative viability EC50 (Calu-3 [5]) [µM]	cell viability (U2OS [6]; 1 nM) [%]	cell viability (U2OS [6]; 10 nM) [%]	cell viability (U2OS [6]; 100 nM) [%]	cell viability (U2OS [6]; 1000 nM) [%]	cell viability (U2OS [6]; 10000 nM) [%]	cell viability (Vero E6 [7]; 1 nM) [%]	cell viability (Vero E6 [7]; 10 nM) [%]	cell viability (Vero E6 [7]; 100 nM) [%]	cell viability (Vero E6 [7]; 1000 nM) [%]	cell viability (Vero E6 [7]; 10000 nM) [%]	cell viability (Caco-2 [8]; 1 nM) [%]	cell viability (Caco-2 [8]; 10 nM) [%]	cell viability (Caco-2 [8]; 100 nM) [%]	cell viability (Caco-2 [8]; 1000 nM) [%]	cell viability (Caco-2 [8]; 10000 nM) [%]	cell viability (HepG2 [9]; 1 nM) [%]	cell viability (HepG2 [9]; 10 nM) [%]	cell viability (HepG2 [9]; 100 nM) [%]	cell viability (HepG2 [9]; 1000 nM) [%]	cell viability (HepG2 [9]; 10000 nM) [%]	cell viability (Calu-3 [10]; 1 nM) [%]	cell viability (Calu-3 [10]; 10 nM) [%]	cell viability (Calu-3 [10]; 100 nM) [%]	cell viability (Calu-3 [10]; 1000 nM) [%]	cell viability (Calu-3 [10]; 10000 nM) [%]	drug sensitivity score (U2OS [11])	drug sensitivity score (Vero E6 [12])	drug sensitivity score (Caco-2 [13])	drug sensitivity score (HepG2 [14])	drug sensitivity score (Calu-3 [15])
CC[C@H]1[C@@H](O)[C@@H]2[C@H](CC[C@]3(C)[C@@H]([C@H](C)CCC(=O)O)CC[C@@H]23)[C@@]2(C)CC[C@@H](O)C[C@@H]12 [obeticholic-acid]	> 10	> 10	> 10	> 10	> 10	102	104	96.1	104	99.2	109 ± 20	94.8 ± 3.3	99.8 ± 12	97.3 ± 0.57	103 ± 7.1	98.7 ± 5.8	104 ± 4.4	95 ± 8.5	94.8 ± 1.6	95.5 ± 1.6	100 ± 4.6	102 ± 17	95.5 ± 8.1	103 ± 3.2	104.8 ± 0.14	106 ± 6.7	100 ± 2.4	105.9 ± 0.57	97.5 ± 6.6	98.2 ± 7.2	0	0	0.25 ± 0.35	0	0
O=C(NC1CCOCC1)c1ccc(-c2cc(-c3c[nH]nc3-c3ccccn3)ccn2)cc1	> 10	> 10	> 10	> 10	> 10	98.2	98.4	100	94.4	92.2	93.4	103	98.8	107	102	91	97.2	100	95.7	93.9	96.2	99.9	94.8	104	93.8	101	120	103	99.6	108	0	0	0	0	0
CCCCNC(=O)[C@@H]1Cc2ccccc2N1C(=O)[C@@H](N)CC [butabindide]	> 10	> 10	> 10	> 10	> 10	95.9	98.9	95.7	106	106	98.7	88.4	98.9	91.7	101	89.3	99.2	86.1	103	108	106	97.2	109	108	106	95.2	99.7	97.1	97.1	128	0	0	0	0	0
N[C@@H](C(=O)O)c1cc(O)cc(O)c1 [dihydroxyphenylglycine]	> 10	> 10	> 10	> 10	> 10	102.7 ± 0.85	97.2 ± 2.8	103	98.8 ± 0.42	101 ± 2	99.4 ± 5.7	97.5 ± 7	98.5 ± 1.9	99.6 ± 5.4	95.8 ± 4.7	102 ± 3.8	94.9 ± 1.1	92.4 ± 7.5	90.8 ± 4.5	103 ± 5	95.8 ± 10	92 ± 9.4	87.9 ± 4.8	98.2 ± 2.4	102 ± 8.4	104 ± 5.4	90.5 ± 9.7	102 ± 1.1	102 ± 6.4	105 ± 9.4	0	0	0	0	0
O=C(COc1ccc(Cl)cc1)N1CCN(Cc2ccc3c(c2)OCO3)CC1 [fipexide]	> 10	> 10	> 10	> 10	> 10	102	100	101	95.2	96.2	97.6	99.9	101	101	97.6	98.8	90.1	93.5	93.4	88.4	83.9	90.8	86.6	93.8	102	101	93.1	103	93.5	110	0	0	0	0	0
O=C(COc1cccc2c(=O)[nH]ccc12)c1ccccc1 [UPF-1069]	> 10	> 10	> 10	> 10	> 10	102	101	95.1	103	93.9	94.2	108	107	93.8	94.6	95.6	92.5	94.8	87	84.5	97	95.6	98.5	89	88	98.2	101	92.9	96.8	90.2	0	0	0.8	0.1	0
CCC(=O)NCC[C@@H]1CCc2ccc3c(c21)CCO3 [ramelteon]	> 10	> 10	> 10	> 10	> 10	99.5	98.4	101	96.1	98.7	112	110	106	100	99.5	102	96.8	97.1	101	95.6	105	112	105	108	89	106	90.7	100	86.3	98.4	0	0	0	0	0
CN[C@H](CC(=O)O)C(=O)O [NMDA]	> 10	> 10	> 10	> 10	> 10	95.1	96.8	91.7	102	91.5	107	107	104	99.5	107	101	97.5	103	103	88	99.9	102	110	104	102	85.4	88.6	87.7	105	89.4	0	0	0	0	0
O=C(c1c(O)nc2cc(Cl)ccc2c1O)C1CC1	> 10	> 10	> 10	> 10	> 10	99.9	98.6	102	96	98.1	90.4	98.6	90.1	95.9	109	94.7	91.3	90.1	93.5	98.4	97.7	112	89.6	102	104	96.5	88.1	106	97.1	96.5	0	0	0	0	0
CC(C)OC(=O)c1cc2c(OC[C@@H](O)CNC(C)(C)C)cccc2[nH]1	> 10	> 10	> 10	> 10	> 10	96.1	99.3	96.1	98.3	91.9	101	102	99.6	93.4	94.2	92.3	93	105	89.5	103	98.2	103	102	95.7	90.4	114	102	91.6	108	91.3	0	0	0	0	0
c1ccc2c(-c3cnn4cc(-c5ccc(N6CCNCC6)cc5)cnc34)ccnc2c1	1.75	1.44	1.94	1.57	2.69	95.1	94.2	92.1	80.4	-0.1	90	102	98.1	71.5	-0.1	107	87.7	120	85.9	11.4	99.3	111	94.5	75.7	-0.1	95.8	98.6	112	93.9	0.4	8.7	9.7	7.2	9.3	6.4
O=c1cc(N2CCOCC2)nc2c3ccccc3ccn12 [compound-401]	> 10	> 10	> 10	> 10	> 10	96.2	99.8	97.2	101	95.5	102	97.9	98	98.3	95.9	96.8	108	96.4	99.1	85.8	93	108	99.4	82.8	78	93.8	94.4	97.9	99.5	107	0	0	0.2	2.5	0
C#Cc1cnc2nc(O)n(C(CC)CC)c2n1 [tirasemtiv]	> 10	> 10	> 10	> 10	> 10	103	100	101	98.6	98.5	94.8	101	93.4	96.9	106	90.7	92.8	103	107	103	102	113	99.4	115	98.5	95.8	98.7	103	95.7	106	0	0	0	0	0
c1ccc(-c2n[nH]cc2-c2ccnc3ccccc23)nc1	> 10	> 10	> 10	> 10	> 10	94.1	97.9	95.9	98.9	91.4	94.1	99.4	99.4	89.3	104	96.4	93.1	92.7	103	97.3	110	96.4	107	102	116	95.5	105	110	105	105	0	0	0	0	0
